Source: US20220257702A1, “STABLE ALBUVIRTIDE COMPOSITIONS” (priority 2019, published 2022)

Columns and labels:
[1] = Stability of lyophilized Albuvirtide-PB upon storage at −20° C. (HPLC); assay type: physicochemical; conditions: in words, Table 6
Protocol: (§1) The liquid compositions having albuvirtide and PB were then lyophilized and their stability were tested. Part of the organic solvent could be removed using reduced-pressure evaporation. Stability of Albuvirtide-PB upon lyophilization, upon storage at 25° C., 6° C. and −20° C. were tested using HPLC. The lyophilized powder of Albuvirtide-PB were kept at 25° C., 6° C. and −20° C. for certain periods of time while their purities were monitored during such periods by HPLC.

HIV-1 = conditions: background statement; cited from earlier work
[2] = cited from earlier work
[3] = Stability of lyophilized albuvirtide compositions upon storage at 25° C. (HPLC); assay type: physicochemical; conditions: in words
Protocol: as §1

[4] = Stability of lyophilized Albuvirtide-PB upon storage at 6° C. (HPLC); assay type: physicochemical; conditions: in words
Protocol: as §1

## albuvirtide
[1]
  purity of albuvirtide during storage for 3 month at −20° C.: barely changed
HIV-1
  concentration at which viral entry is inhibited: low nanomolar concentration
  in vitro activity against HIV-1: in vitro activity against various HIV-1 strains and certain variants that are resistant to enfuvirtide (Fuzeon)
[2]
  in vivo half-life: long half-life
[3]; Table 9
  purity of albuvirtide during storage for 5 days at 25° C.: barely changed
[3]; Table 11
  purity of albuvirtide during storage for 1 month at 25° C.: barely changed
[4]; Table 5
  change in purity of albuvirtide during storage for 1 month at 6° C.: equivalent to that during storage at 25 °C for 5 days
[4]; Table 10
  purity of albuvirtide during storage for 2 months at 6° C.: barely changed
